This assay concerns MV-4-11 cells. The experiment in a line: Gene expression microarray analysis (Affymetrix PrimeView) and GSEA. Set-up: RFU PODN (11730768_x_at) / Fold change /veh PODN (11730768_x_at) / RFU LINC00158 (11744669_a_at) / Fold change /veh LINC00158 (11744669_a_at) / RFU DUSP10 (11751237_a_at) / Fold change /veh DUSP10 (11751237_a_at) / RFU ID3 (11757404_x_at) / Fold change /veh ID3 (11757404_x_at) / RFU PLEKHG5 (11737974_s_at) / Fold change /veh PLEKHG5 (11737974_s_at) / RFU LRRC4B (11730491_at) / Fold change /veh LRRC4B (11730491_at) / RFU GIMAP4 (11747438_a_at) / Fold change /veh GIMAP4 (11747438_a_at) / RFU KRT8 (11758183_x_at) / Fold change /veh KRT8 (11758183_x_at) / RFU CNN1 (11734310_a_at) / Fold change /veh CNN1 (11734310_a_at) / RFU VPS37D (11726825_at) / Fold change /veh VPS37D (11726825_at) / RFU C10orf10 (11716522_x_at) / Fold change /veh C10orf10 (11716522_x_at) / RFU KIR2DL2 /// KIR2DL4 /// KIR2DL5A /// KIR2DL5B /// KIR2DS1 /// KIR2DS2 /// KIR2DS3 /// KIR2DS4 /// KIR3DL3 /// KIR3DL3 /// KIR3DS1 (11738374_at) / Fold change /veh KIR2DL2 /// KIR2DL4 /// KIR2DL5A /// KIR2DL5B /// KIR2DS1 /// KIR2DS2 /// KIR2DS3 /// KIR2DS4 /// KIR3DL3 /// KIR3DL3 /// KIR3DS1 (11738374_at) / RFU C1QL1 (11718748_at) / Fold change /veh C1QL1 (11718748_at) / RFU TMPRSS4 (11747572_a_at) / Fold change /veh TMPRSS4 (11747572_a_at) / RFU HAMP (11756126_x_at) / Fold change /veh HAMP (11756126_x_at) / RFU RNFT2 (11725882_a_at) / Fold change /veh RNFT2 (11725882_a_at) / RFU NR4A2 (11747474_a_at) / Fold change /veh NR4A2 (11747474_a_at) / RFU ABCC12 (11746883_a_at) / Fold change /veh ABCC12 (11746883_a_at) / RFU TMEM136 (11760407_x_at) / Fold change /veh TMEM136 (11760407_x_at) / RFU CLDN22 /// WWC2 (11732394_at) / Fold change /veh CLDN22 /// WWC2 (11732394_at) / RFU HLA-DPB1 (11760878_x_at) / Fold change /veh HLA-DPB1 (11760878_x_at) / RFU SPINT1 (11716480_a_at) / Fold change /veh SPINT1 (11716480_a_at) / RFU GAP43 (11754022_s_at) / Fold change /veh GAP43 (11754022_s_at) / RFU A4GNT (11735810_at) / Fold change /veh A4GNT (11735810_at) / RFU PRB3 (11715151_x_at) / Fold change /veh PRB3 (11715151_x_at) / RFU TUBB4B (11761932_at) / Fold change /veh TUBB4B (11761932_at) / RFU CAPN14 (11732068_a_at) / Fold change /veh CAPN14 (11732068_a_at) / RFU TMCC2 (11721928_a_at) / Fold change /veh TMCC2 (11721928_a_at) / RFU IRGQ (11745062_a_at) / Fold change /veh IRGQ (11745062_a_at) / RFU FAM174B (11720279_a_at) / Fold change /veh FAM174B (11720279_a_at) / RFU TMPRSS4 (11748680_a_at) / Fold change /veh TMPRSS4 (11748680_a_at) / RFU FAM212B (11763350_a_at) / Fold change /veh FAM212B (11763350_a_at) / RFU PLEKHG5 (11743358_a_at) / Fold change /veh PLEKHG5 (11743358_a_at) / RFU ZSCAN30 (11745921_a_at) / Fold change /veh ZSCAN30 (11745921_a_at) / RFU CMKLR1 (11741424_a_at) / Fold change /veh CMKLR1 (11741424_a_at) / RFU LOC101060620 /// MAPK8IP1 (11723275_at) / Fold change /veh LOC101060620 /// MAPK8IP1 (11723275_at) / RFU SPTSSB (11747773_x_at) / Fold change /veh SPTSSB (11747773_x_at) / RFU PRSS12 (11739890_at) / Fold change /veh PRSS12 (11739890_at) / RFU BIN1 (11741810_x_at) / Fold change /veh BIN1 (11741810_x_at) / RFU WNT11 (11732464_a_at) / Fold change /veh WNT11 (11732464_a_at) / RFU C10orf10 (11716521_a_at) / Fold change /veh C10orf10 (11716521_a_at) / RFU C5orf56 (11738089_at) / Fold change /veh C5orf56 (11738089_at) / RFU CYB561 (11721691_x_at) / Fold change /veh CYB561 (11721691_x_at) / RFU ANKRD19P (11752326_a_at) / Fold change /veh ANKRD19P (11752326_a_at) / RFU OR2T12 /// OR2T33 /// OR2T8 (11738714_s_at) / Fold change /veh OR2T12 /// OR2T33 /// OR2T8 (11738714_s_at) / RFU VCAN (11748164_a_at) / Fold change /veh VCAN (11748164_a_at) / RFU JSRP1 (11732532_at) / Fold change /veh JSRP1 (11732532_at) / RFU KRTAP10-11 (11738290_x_at) / Fold change /veh KRTAP10-11 (11738290_x_at) / RFU MYO3A (11730013_a_at) / Fold change /veh MYO3A (11730013_a_at) / RFU EBF3 (11725865_a_at) / Fold change /veh EBF3 (11725865_a_at) / RFU CAMK2N1 (11719241_x_at) / Fold change /veh CAMK2N1 (11719241_x_at) / RFU C5orf56 (11738088_a_at) / Fold change /veh C5orf56 (11738088_a_at) / RFU OLFML3 (11715873_a_at) / Fold change /veh OLFML3 (11715873_a_at) / RFU LOC100653217 /// NTM (11731650_a_at) / Fold change /veh LOC100653217 /// NTM (11731650_a_at) / RFU MAPK11 (11762145_a_at) / Fold change /veh MAPK11 (11762145_a_at) / RFU FIZ1 (11724087_x_at) / Fold change /veh FIZ1 (11724087_x_at) / RFU OASL (11726364_x_at) / Fold change /veh OASL (11726364_x_at) / RFU SOX15 (11748057_x_at) / Fold change /veh SOX15 (11748057_x_at) / RFU CD79A (11719716_a_at) / Fold change /veh CD79A (11719716_a_at) / RFU HIST1H1D (11736915_at) / Fold change /veh HIST1H1D (11736915_at) / RFU CASKIN2 (11723855_a_at) / Fold change /veh CASKIN2 (11723855_a_at) / RFU LOC730098 (11760151_x_at) / Fold change /veh LOC730098 (11760151_x_at) / RFU OR4N2 (11742367_at) / Fold change /veh OR4N2 (11742367_at) / RFU PRRT2 (11749266_a_at) / Fold change /veh PRRT2 (11749266_a_at) / RFU SNX32 (11753110_a_at) / Fold change /veh SNX32 (11753110_a_at) / RFU CDHR5 (11726645_a_at) / Fold change /veh CDHR5 (11726645_a_at) / RFU RCAN1 (11760418_a_at) / Fold change /veh RCAN1 (11760418_a_at) / RFU FAM167A (11723789_a_at) / Fold change /veh FAM167A (11723789_a_at) / RFU FAM26E (11764081_at) / Fold change /veh FAM26E (11764081_at) / RFU ISYNA1 (11749810_s_at) / Fold change /veh ISYNA1 (11749810_s_at) / RFU ACY1 (11761880_at) / Fold change /veh ACY1 (11761880_at) / RFU 11764098_at / Fold change /veh 11764098_at / RFU SAMD14 (11745864_x_at) / Fold change /veh SAMD14 (11745864_x_at) / RFU NPB (11741838_a_at) / Fold change /veh NPB (11741838_a_at) / RFU TMPRSS6 (11731388_a_at) / Fold change /veh TMPRSS6 (11731388_a_at) / RFU KRTAP10-2 (11738614_at) / Fold change /veh KRTAP10-2 (11738614_at) / RFU ARHGAP8 /// PRR5-ARHGAP8 (11727945_x_at) / Fold change /veh ARHGAP8 /// PRR5-ARHGAP8 (11727945_x_at) / RFU KRTAP5-7 /// NADSYN1 (11734609_at) / Fold change /veh KRTAP5-7 /// NADSYN1 (11734609_at) / RFU RASL12 (11751679_a_at) / Fold change /veh RASL12 (11751679_a_at) / RFU CDKN2B (11736163_a_at) / Fold change /veh CDKN2B (11736163_a_at) / RFU PRF1 (11729649_at) / Fold change /veh PRF1 (11729649_at) / RFU, ZNF638 /// ZNF638-IT1 / Fold change vs veh, ZNF638 /// ZNF638-IT1 / RFU, PANK3 / Fold change vs veh, PANK3 / RFU, SH3YL1 / Fold change vs veh, SH3YL1 / RFU, ZEB2 / Fold change vs veh, ZEB2 / RFU, NRIP1 / Fold change vs veh, NRIP1 / RFU, PTTG1IP / Fold change vs veh, PTTG1IP / RFU, CAPN2 / Fold change vs veh, CAPN2 / RFU, MED14 / Fold change vs veh, MED14 / RFU, SNORA58 / Fold change vs veh, SNORA58 / RFU, C1orf63 / Fold change vs veh, C1orf63 / RFU, LRRFIP1 / Fold change vs veh, LRRFIP1 / RFU, NDUFAF7 / Fold change vs veh, NDUFAF7 / RFU, SLC12A2 / Fold change vs veh, SLC12A2 / RFU, IBTK / Fold change vs veh, IBTK / RFU, ESF1 / Fold change vs veh, ESF1 / Fold change vs veh, TMEM50B / RFU, TAOK1 / Fold change vs veh, TAOK1 / RFU, ACBD3 / Fold change vs veh, ACBD3 / RFU, TMA16 / Fold change vs veh, TMA16 / RFU, RWDD3 / Fold change vs veh, RWDD3 / RFU, BCAT1 / Fold change vs veh, BCAT1 / RFU, EDEM3 / Fold change vs veh, EDEM3 / RFU, TMEM33 / Fold change vs veh, TMEM33 / RFU, WDR75 / Fold change vs veh, WDR75 / RFU, AHCTF1 / Fold change vs veh, AHCTF1 / RFU, TFRC / Fold change vs veh, TFRC / RFU, ZDHHC17 / Fold change vs veh, ZDHHC17 / RFU, NOM1 / Fold change vs veh, NOM1 / RFU, ARL8B / Fold change vs veh, ARL8B / RFU, ZBTB11 / Fold change vs veh, ZBTB11 / RFU, TAMM41 / Fold change vs veh, TAMM41 / RFU, KIAA1704 /// LOC100996395 / Fold change vs veh, KIAA1704 /// LOC100996395 / RFU, ING1 / Fold change vs veh, ING1 / RFU, TRMT61B / Fold change vs veh, TRMT61B / RFU, FUBP3 / Fold change vs veh, FUBP3 / RFU, TP53 / Fold change vs veh, TP53 / RFU, TNKS2 / Fold change vs veh, TNKS2 / RFU, ZFP14 / Fold change vs veh, ZFP14 / RFU, ACTR2 / Fold change vs veh, ACTR2 / RFU, PPP3R1 / Fold change vs veh, PPP3R1 / RFU, PIK3R1 / Fold change vs veh, PIK3R1 / RFU, HNRNPA1 / Fold change vs veh, HNRNPA1 / RFU, RNF170 / Fold change vs veh, RNF170 / RFU, ZNF28 / Fold change vs veh, ZNF28 / RFU, RNGTT / Fold change vs veh, RNGTT / RFU, OGT / Fold change vs veh, OGT / RFU, BRD1 / Fold change vs veh, BRD1 / RFU, MARS / Fold change vs veh, MARS / RFU, ZNF655 / Fold change vs veh, ZNF655 / RFU, FAHD1 / Fold change vs veh, FAHD1 / RFU, BDP1 / Fold change vs veh, BDP1 / RFU, LRRCC1 / Fold change vs veh, LRRCC1 / RFU, ARID1A / Fold change vs veh, ARID1A / RFU, ZNF146 / Fold change vs veh, ZNF146 / RFU, ZNF330 / Fold change vs veh, ZNF330 / RFU, GPN3 / Fold change vs veh, GPN3 / RFU, C9orf123 / Fold change vs veh, C9orf123 / RFU, N4BP2L2 / Fold change vs veh, N4BP2L2 / RFU, ARFIP1 / Fold change vs veh, ARFIP1 / RFU, FAM179B / Fold change vs veh, FAM179B / RFU, BCL10 / Fold change vs veh, BCL10 / RFU, UHRF1BP1L / Fold change vs veh, UHRF1BP1L / RFU, BET1 / Fold change vs veh, BET1 / RFU, CNOT2 / Fold change vs veh, CNOT2 / RFU, ZNF268 / Fold change vs veh, ZNF268 / Fold change vs veh, ZNF507 / RFU, DGCR2 / Fold change vs veh, DGCR2 / RFU, WDSUB1 / Fold change vs veh, WDSUB1 / Fold change vs veh, HSP90B1 /// MIR3652 / RFU, ADSS / Fold change vs veh, ADSS / RFU, GK / Fold change vs veh, GK / RFU, ZNF148 / Fold change vs veh, ZNF148 / RFU, TAF9 / Fold change vs veh, TAF9 / RFU, SLC1A5 / Fold change vs veh, SLC1A5 / RFU, SLMO2 / Fold change vs veh, SLMO2 / RFU, ABCC4 / Fold change vs veh, ABCC4 / RFU, LOC101060439 /// RAP1B / Fold change vs veh, LOC101060439 /// RAP1B / RFU, RFX7 / Fold change vs veh, RFX7 / RFU, GTPBP10 / Fold change vs veh, GTPBP10 / RFU, CNEP1R1 / Fold change vs veh, CNEP1R1 / RFU, BIVM-ERCC5 /// ERCC5 / Fold change vs veh, BIVM-ERCC5 /// ERCC5 / RFU, ILF3 / Fold change vs veh, ILF3 / RFU 11762660_at / Fold change /veh 11762660_at / RFU VCAN (11757783_s_at) / Fold change /veh VCAN (11757783_s_at) / RFU DDX43 (11728927_at) / Fold change /veh DDX43 (11728927_at) / RFU KRT8 (11758188_x_at) / Fold change /veh KRT8 (11758188_x_at) / RFU NKD1 (11759106_at) / Fold change /veh NKD1 (11759106_at) / RFU SRD5A1 (11742802_a_at) / Fold change /veh SRD5A1 (11742802_a_at) / RFU TPSAB1 /// TPSB2 (11721975_s_at) / Fold change /veh TPSAB1 /// TPSB2 (11721975_s_at) / RFU GSTM3 (11746129_a_at) / Fold change /veh GSTM3 (11746129_a_at) / RFU IL23R (11737362_x_at) / Fold change /veh IL23R (11737362_x_at) / RFU TMEM51 (11727254_a_at) / Fold change /veh TMEM51 (11727254_a_at) / RFU PIWIL2 (11732686_x_at) / Fold change /veh PIWIL2 (11732686_x_at) / RFU ORM1 (11744905_x_at) / Fold change /veh ORM1 (11744905_x_at) / RFU CCDC152 (11743942_at) / Fold change /veh CCDC152 (11743942_at) / RFU ECM1 (11717891_a_at) / Fold change /veh ECM1 (11717891_a_at) / RFU IL23R (11748794_a_at) / Fold change /veh IL23R (11748794_a_at) / RFU TNFAIP8L3 (11732012_x_at) / Fold change /veh TNFAIP8L3 (11732012_x_at) / RFU MBOAT4 (11741988_at) / Fold change /veh MBOAT4 (11741988_at) / RFU 11764193_at / Fold change /veh 11764193_at / RFU TMEM53 (11763286_at) / Fold change /veh TMEM53 (11763286_at) / RFU MAGEB2 (11727129_at) / Fold change /veh MAGEB2 (11727129_at) / RFU TMEM200A (11744735_a_at) / Fold change /veh TMEM200A (11744735_a_at) / RFU CCDC152 (11751479_a_at) / Fold change /veh CCDC152 (11751479_a_at) / RFU FAM211A (11726209_a_at) / Fold change /veh FAM211A (11726209_a_at) / RFU RGS16 (11746705_a_at) / Fold change /veh RGS16 (11746705_a_at) / RFU VCAN (11755009_s_at) / Fold change /veh VCAN (11755009_s_at) / RFU RHOB (11743442_s_at) / Fold change /veh RHOB (11743442_s_at) / RFU RGS16 (11720943_a_at) / Fold change /veh RGS16 (11720943_a_at) / RFU RGS16 (11720944_at) / Fold change /veh RGS16 (11720944_at) / RFU, VPS4B / Fold change vs veh, VPS4B / RFU, CREB1 / Fold change vs veh, CREB1 / RFU, DNAJC13 / Fold change vs veh, DNAJC13 / RFU, GNAQ / Fold change vs veh, GNAQ / RFU, CDK5R1 / Fold change vs veh, CDK5R1 / RFU, ZRANB3 / Fold change vs veh, ZRANB3 / RFU, CUL4A / Fold change vs veh, CUL4A / RFU, CCNY / Fold change vs veh, CCNY / RFU, UFL1 / Fold change vs veh, UFL1 / RFU, COG3 / Fold change vs veh, COG3 / RFU, DIAPH2 / Fold change vs veh, DIAPH2 / RFU, SKA2 / Fold change vs veh, SKA2 / RFU, AFF3 / Fold change vs veh, AFF3 / RFU, LMF1 / Fold change vs veh, LMF1 / RFU, IPO11 / Fold change vs veh, IPO11 / RFU, DFFB / Fold change vs veh, DFFB / RFU, FOXP1 / Fold change vs veh, FOXP1 / RFU, CARD8 / Fold change vs veh, CARD8 / RFU, STRN3 / Fold change vs veh, STRN3 / RFU, ADK / Fold change vs veh, ADK / RFU, RASSF2 / Fold change vs veh, RASSF2 / RFU, WIPF1 / Fold change vs veh, WIPF1 / RFU, LARP1B / Fold change vs veh, LARP1B / RFU, RASA1 / Fold change vs veh, RASA1 / RFU, RB1 / Fold change vs veh, RB1 / RFU, PPFIA1 / Fold change vs veh, PPFIA1 / RFU, MAT2A / Fold change vs veh, MAT2A / RFU, CCT5 / Fold change vs veh, CCT5 / RFU, WDR92 / Fold change vs veh, WDR92 / RFU, CUX1 / Fold change vs veh, CUX1 / RFU, TTC7A / Fold change vs veh, TTC7A / RFU, TMEM135 / Fold change vs veh, TMEM135 / RFU, DEPTOR / Fold change vs veh, DEPTOR / RFU, CPM / Fold change vs veh, CPM / RFU, DNAJB6 / Fold change vs veh, DNAJB6 / RFU, CACNA2D3 / Fold change vs veh, CACNA2D3 / RFU, DTX4 / Fold change vs veh, DTX4 / RFU, TFCP2 / Fold change vs veh, TFCP2 / RFU, GMCL1 /// GMCL1P1 / Fold change vs veh, GMCL1 /// GMCL1P1 / RFU, AEBP2 / Fold change vs veh, AEBP2 / RFU, SNHG1 /// SNORD22 /// SNORD25 /// SNORD26 /// SNORD27 /// SNORD28 /// SNORD29 /// SNORD31 / Fold change vs veh, SNHG1 /// SNORD22 /// SNORD25 /// SNORD26 /// SNORD27 /// SNORD28 /// SNORD29 /// SNORD31 / Fold change (Aza/veh), C12orf56 (ProbeSet 11735607_a_at) / Fold change (ACY-1035/veh), C12orf56 (ProbeSet 11735607_a_at) / Fold change (Aza/veh), FGFR1OP (ProbeSet 11751329_s_at) / Fold change (ACY-1035/veh), FGFR1OP (ProbeSet 11751329_s_at) / Fold change (Aza/veh), VPS36 (ProbeSet 11739960_a_at) / Fold change (ACY-1035/veh), VPS36 (ProbeSet 11739960_a_at) / RFU SYPL1 (11715823_x_at) / Fold change /veh SYPL1 (11715823_x_at) / RFU IGFBP7 (11715501_s_at) / Fold change /veh IGFBP7 (11715501_s_at) / RFU REEP3 (11722064_at) / Fold change /veh REEP3 (11722064_at) / RFU IGLL1 (11728026_x_at) / Fold change /veh IGLL1 (11728026_x_at): dose or concentration left out as unconfirmed. The conditions noted are these: ProbeSet 11738335_x_at; LIST B. It is filed as cell-based, human.

In the case of `Nc1ncn([C@@H]2O[C@H](CO)[C@@H](O)[C@H]2O)c(=O)n1` [azacitidine], the “RFU, TP53” value is on record as 77.85 RFU.

The values above are taken from paper PMC5218480 (PLoS ONE, 2017).
